Values of other authors in patent publication US20050063990A1, “Compositons and methods for weight loss” (priority 2003, published 2005).

Key:
[1] = animal studies (mice fed CLA)

conjugated linoleic acid [CLA]
increase in use of fat as fuel (energy expenditure) [1]: 74%
abdominal fat (men classified as abdominally obese): decrease abdominal fat
total fat mass (overweight and obese humans): reduces total fat mass
